Values of other authors in patent publication US20020193379A1, “Compositions and methods for decreasing the risk of or preventing neural tube disorders in mammals” (Insmed Incorporated, priority 2001, published 2002).

Tested on: NTDs
Settings: folic acid supplementation in early pregnancy; cited from earlier work

## Nc1nc2ncc(CNc3ccc(C(=O)N[C@@H](CCC(=O)O)C(=O)O)cc3)nc2c(=O)[nH]1 [folic acid]
  NTDs that can be prevented: Up to 70%
